Test results from patent US11723908B2, “Quinazoline derivatives as antitumor agents” (SUZHOU ZANRONG PHARMA LIMITED, priority 2018, dated 2023).

The compounds below were run against HER2 (Homo sapiens (Human), UniProt P04626) (assay: BT474 cellular assay (HER2 inhibition), phospho-HER2 ELISA). Details: inhibition of phosphor HER2, BT474 cells, 2 hours compound incubation.
Assay type: cell-based
Description: Assay a) BT474 Cellular Assay (HER2 Inhibition) Inhibition of phosphor HER2 was determined by enzyme-linked immunosorbent assay (ELISA) in BT474 cells. BT474 cell line was purchased from [NT] number HTB-20). Human Phospho-ErbB2 ELISA kit was purchased from R&D systems (catalog number DYC1768). Day 1: When the cells reach 70-90% confluence, cells were trypsinized and re-suspended. 5000 cells per well were seeded to a 384-well plate. The plate was incubated at 37° C. with 5% CO2 for 24 hours. ELISA plate was coated with 2 μg/ml capture antibody, which was incubated at 4° C. overnight. Day 2: 25 nl compounds was dosed by Echo from source plate and the 384-well plate was incubated at 37° C. for 2 hours. 30 μl lysis buffer was added to each well and the 384-well plate was shaken softly at 4° C. for 30 minutes. The ELISA plate was washed, blocked and incubated at room temperature for 1-2 hours. The blocked ELISA plate was washed and 20 μl cell lysate was transferred from the 384-well plate to the ELISA plate, which was incubated overnight at 4° C. Day 3: The ELISA plate was washed 3 times. 25 μl/well detection antibody was added (diluted 1 by 2000 in 1% BSA in PBS). After 2 hours of incubation with detection antibody, the ELISA plate was washed 3 times, 25 μl/well TMB substrate was added and incubated for 10-15 minutes before stop solution was added. Absorbance at 450 nm and 570 nm was read within 30 minutes after adding the stop solution. […] The IC50 results are provided in Table 1 for some exemplary compounds.

HER2, sequence (P04626 23-1255): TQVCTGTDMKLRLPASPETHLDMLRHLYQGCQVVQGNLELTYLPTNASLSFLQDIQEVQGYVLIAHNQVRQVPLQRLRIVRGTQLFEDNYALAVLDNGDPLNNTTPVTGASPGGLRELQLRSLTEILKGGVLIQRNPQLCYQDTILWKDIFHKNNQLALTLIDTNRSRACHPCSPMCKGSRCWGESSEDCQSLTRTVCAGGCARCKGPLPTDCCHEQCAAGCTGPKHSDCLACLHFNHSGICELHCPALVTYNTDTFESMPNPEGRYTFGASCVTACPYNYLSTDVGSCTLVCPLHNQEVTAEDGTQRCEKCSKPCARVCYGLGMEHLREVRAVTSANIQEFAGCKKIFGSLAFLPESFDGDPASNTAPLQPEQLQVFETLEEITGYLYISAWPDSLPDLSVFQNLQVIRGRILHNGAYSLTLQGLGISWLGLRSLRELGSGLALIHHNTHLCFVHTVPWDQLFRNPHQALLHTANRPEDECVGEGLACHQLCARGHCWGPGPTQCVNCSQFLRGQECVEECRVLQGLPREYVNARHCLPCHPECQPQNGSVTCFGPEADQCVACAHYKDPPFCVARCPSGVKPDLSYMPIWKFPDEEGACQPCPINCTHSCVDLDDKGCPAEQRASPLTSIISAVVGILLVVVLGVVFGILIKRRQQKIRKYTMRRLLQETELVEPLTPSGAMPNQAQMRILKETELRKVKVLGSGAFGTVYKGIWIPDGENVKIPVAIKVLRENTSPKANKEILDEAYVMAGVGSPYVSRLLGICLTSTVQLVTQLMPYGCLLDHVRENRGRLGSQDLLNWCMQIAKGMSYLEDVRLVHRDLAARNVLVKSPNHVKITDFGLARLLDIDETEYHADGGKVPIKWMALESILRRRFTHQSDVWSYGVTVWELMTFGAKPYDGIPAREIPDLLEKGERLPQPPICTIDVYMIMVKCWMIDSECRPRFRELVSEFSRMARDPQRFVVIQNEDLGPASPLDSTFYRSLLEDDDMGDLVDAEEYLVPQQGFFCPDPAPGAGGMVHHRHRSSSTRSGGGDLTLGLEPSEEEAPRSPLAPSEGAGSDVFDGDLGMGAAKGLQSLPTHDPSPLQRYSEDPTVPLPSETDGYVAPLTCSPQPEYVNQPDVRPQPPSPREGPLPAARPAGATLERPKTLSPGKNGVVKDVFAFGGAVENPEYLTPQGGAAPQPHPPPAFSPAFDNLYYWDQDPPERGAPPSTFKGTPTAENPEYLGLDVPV

SMILES	IC50 [nM]
COc1ccc2ncnc(Nc3ccc(Oc4cc5ncnn5cn4)c(C)c3)c2c1N1CC[C@@H](N(C)C)C1 [Example 2, (R)—N-(4-([1,2,4]-triazolo[1,5-c]pyrimidin-7-yloxy)-3-methylphenyl)-5-(3-(dimethylamino)pyrrolidin-1-yl)-6-methoxyquinazolin-4-amine]	27
COc1ccc2ncnc(Nc3ccc(Oc4cc5ncnn5cn4)c(C)c3)c2c1OC1CCN(C)CC1 [Example 5, N-(4-([1,2,4]triazolo[1,5-c]pyrimidin-7-yloxy)-3-methylphenyl)-6-methoxy-5-((1-methylpiperidin-4-yl)oxy)quinazolin-4-amine]	82
Cc1cc(Nc2ncnc3ccc(OC(F)F)c(O[C@@H]4CCN(C)CC4(F)F)c23)ccc1Oc1cc2ncnn2cn1 [Example 17, (R)—N-(4-([1,2,4]triazolo[1,5-c]pyrimidin-7-yloxy)-3-methylphenyl)-5-((3,3-difluoro-1-methylpiperidin-4-yl)oxy)-6-(difluoromethoxy)quinazolin-4-amine]	35
Cc1cc(Nc2ncnc3ccc(OC(F)F)c(O[C@H]4CCN(C)CC4(F)F)c23)ccc1Oc1cc2ncnn2cn1 [Example 18, (S)—N-(4-([1,2,4]triazolo[1,5-c]pyrimidin-7-yloxy)-3-methylphenyl)-5-((3,3-difluoro-1-methylpiperidin-4-yl)oxy)-6-(difluoromethoxy)quinazolin-4-amine]	48
Cc1cc(Nc2ncnc3ccc(O[C@H]4CCOC4)c(O[C@@H]4CCN(C)CC4(F)F)c23)ccc1Oc1cc2ncnn2cn1 [Example 21, N-(4-([1,2,4]triazolo[1,5-c]pyrimidin-7-yloxy)-3-methylphenyl)-5-(((R)-3,3-difluoro-1-methylpiperidin-4-yl)oxy)-6-(((S)-tetrahydrofuran-3-yl)oxy)quinazolin-4-amine]	15
Cc1cc(Nc2ncnc3ccc(O[C@H]4CCOC4)c(O[C@H]4CCN(C)CC4(F)F)c23)ccc1Oc1cc2ncnn2cn1 [Example 22, N-(4-([1,2,4]triazolo[1,5-c]pyrimidin-7-yloxy)-3-methylphenyl)-5-(((S)-3,3-difluoro-1-methylpiperidin-4-yl)oxy)-6-(((S)-tetrahydrofuran-3-yl)oxy)quinazolin-4-amine]	21
Cc1cc(Nc2ncnc3ccc(OC(C)C)c(O[C@@H]4CCN(C)CC4(F)F)c23)ccc1Oc1cc2ncnn2cn1 [Example 29, (R)—N-(4-([1,2,4]triazolo[1,5-c]pyrimidin-7-yloxy)-3-methylphenyl)-5-((3,3-difluoro-1-methylpiperidin-4-yl)oxy)-6-isopropoxyquinazolin-4-amine]	9.3
Cc1cc(Nc2ncnc3ccc(OC(C)C)c(O[C@H]4CCN(C)CC4(F)F)c23)ccc1Oc1cc2ncnn2cn1 [Example 30, (S)—N-(4-([1,2,4]triazolo[1,5-c]pyrimidin-7-yloxy)-3-methylphenyl)-5-((3,3-difluoro-1-methylpiperidin-4-yl)oxy)-6-isopropoxyquinazolin-4-amine]	20
COc1ccc2ncnc(Nc3ccc(Oc4cc5ncnn5cn4)c(C)c3)c2c1N1CC2C1CCN2C1CC1 (centres unmarked) [Example 67, N-(4-([1,2,4]triazolo[1,5-c]pyrimidin-7-yloxy)-3-methylphenyl)-5-(2-cyclopropyl-2,6-diazabicyclo[3.2.0]heptan-6-yl)-6-methoxyquinazolin-4-amine]	17
COc1ccc2ncnc(Nc3ccc(Oc4cc5ncnn5cn4)c(C)c3)c2c1N1CC2C1CCN2CC(F)F (centres unmarked) [Example 68, N-(4-([1,2,4]triazolo[1,5-c]pyrimidin-7-yloxy)-3-methylphenyl)-5-(2-(2,2-difluoroethyl)-2,6-diazabicyclo[3.2.0]heptan-6-yl)-6-methoxyquinazolin-4-amine]	6.4
Cc1cc(Nc2ncnc3ccc(OC(F)(F)F)c(O[C@@H]4CCN(C)CC4(F)F)c23)ccc1Oc1cc2ncnn2cn1 [Example 72, (R)—N-(4-([1,2,4]-triazolo[1,5-c]pyrimidin-7-yloxy)-3-methylphenyl)-5-((3,3-difluoro-1-methylpiperidin-4-yl)oxy)-6-(trifluoromethoxy)quinazolin-4-amine]	51
COc1ccc2ncnc(Nc3ccc(Oc4cc5ncnn5cn4)c(C)c3)c2c1O[C@@H]1CN(C)CC1(F)F [Example 74, (R)—N-(4-([1,2,4]triazolo[1,5-c]pyrimidin-7-yloxy)-3-methylphenyl)-5-((4,4-difluoro-1-methylpyrrolidin-3-yl)oxy)-6-methoxyquinazolin-4-amine]	9.9
COc1ccc2ncnc(Nc3ccc(Oc4cc5ncnn5cn4)c(C)c3)c2c1O[C@H]1CN(C)CC1(F)F [Example 75, (S)—N-(4-([1,2,4]triazolo[1,5-c]pyrimidin-7-yloxy)-3-methylphenyl)-5-((4,4-difluoro-1-methylpyrrolidin-3-yl)oxy)-6-methoxyquinazolin-4-amine]	13
COc1ccc2ncnc(Nc3ccc(Oc4cc5ncnn5cn4)c(C)c3)c2c1OC1CCNCC1(F)F (centres unmarked) [Example 76, N-(4-([1,2,4]triazolo[1,5-c]pyrimidin-7-yloxy)-3-methylphenyl)-5-((3,3-difluoropiperidin-4-yl)oxy)-6-methoxyquinazolin-4-amine]	11
[2H]C([2H])([2H])Oc1ccc2ncnc(Nc3ccc(Oc4cc5ncnn5cn4)c(C)c3)c2c1O[C@@H]1CCN(C([2H])([2H])[2H])CC1(F)F [Example 77, (R)—N-(4-([1,2,4]triazolo[1,5-c]pyrimidin-7-yloxy)-3-methylphenyl)-5-((3,3-difluoro-1-(methyl-d3)piperidin-4-yl)oxy)-6-(methoxy-d3)quinazolin-4-amine]	14
COc1ccc2ncnc(Nc3ccc(Oc4cc5ncnn5cn4)c(C)c3)c2c1O[C@@H]1CCN(C(C)C)CC1(F)F [Example 78, (R)-N-(4-([1,2,4]triazolo[1,5-c]pyrimidin-7-yloxy)-3-methylphenyl)-5-((3,3-difluoro-1-isopropylpiperidin-4-yl)oxy)-6-methoxyquinazolin-4-amine]	11
COc1ccc2ncnc(Nc3ccc(Oc4cc5ncnn5cn4)c(C)c3)c2c1O[C@@H]1CCN(C2CC2)CC1(F)F [Example 79, (R)-N-(4-([1,2,4]triazolo[1,5-c]pyrimidin-7-yloxy)-3-methylphenyl)-5-((1-cyclopropyl-3,3-difluoropiperidin-4-yl)oxy)-6-methoxyquinazolin-4-amine]	9.8
C=CC(=O)N1CC=C(c2ccc3ncnc(Nc4ccc(Oc5cc6ncnn6cn5)c(C)c4)c3c2N2CC(N(C)C)C2)CC1 [Example 80, 1-(4-(4-((4-([1,2,4]triazolo[1,5-c]pyrimidin-7-yloxy)-3-methylphenyl)amino)-5-(3-(dimethylamino)azetidin-1-yl)quinazolin-6-yl)-3,6-dihydropyridin-1(2H)-yl)prop-2-en-1-one]	390
C=CC(=O)N1CC=C(c2ccc3ncnc(Nc4ccc(Oc5cc6ncnn6cn5)c(C)c4)c3c2O[C@@H]2CCN(C)CC2(F)F)CC1 [Example 81, (R)-1-(4-(4-((4-([1,2,4]triazolo[1,5-c]pyrimidin-7-yloxy)-3-methylphenyl)amino)-5-((3,3-difluoro-1-methylpiperidin-4-yl)oxy)quinazolin-6-yl)-3,6-dihydropyridin-1(2H)-yl)prop-2-en-1-one]	225
C=CC(=O)N1CCC=C(c2ccc3ncnc(Nc4ccc(Oc5cc6ncnn6cn5)c(C)c4)c3c2N2CC(N(C)C)C2)C1 [Example 82, 1-(5-(4-((4-([1,2,4]triazolo[1,5-c]pyrimidin-7-yloxy)-3-methylphenyl)amino)-5-(3-(dimethylamino)azetidin-1-yl)quinazolin-6-yl)-3,6-dihydropyridin-1(2H)-yl)prop-2-en-1-one]	179
C=CC(=O)N1CCC=C(c2cc(N3CC(N(C)C)C3)c3c(Nc4ccc(Oc5cc6ncnn6cn5)c(C)c4)ncnc3c2)C1 [Example 84, 1-(5-(4-((4-([1,2,4]triazolo[1,5-c]pyrimidin-7-yloxy)-3-methylphenyl)amino)-5-(3-(dimethylamino)azetidin-1-yl)quinazolin-7-yl)-3,6-dihydropyridin-1(2H)-yl)prop-2-en-1-one]	207
COc1ccc2ncc(C#N)c(Nc3ccc(Oc4cc5ncnn5cn4)c(C)c3)c2c1O[C@@H]1CCN(C)CC1(F)F [Example 86, (R)-4-((4-([1,2,4]triazolo[1,5-c]pyrimidin-7-yloxy)-3-methylphenyl)amino)-5-((3,3-difluoro-1-methylpiperidin-4-yl)oxy)-6-methoxyquinoline-3-carbonitrile]	208
Cc1cc(Nc2ncnc3ccc(NC(=O)/C=C/CN(C)C)c(O[C@@H]4CCN(C)CC4(F)F)c23)ccc1Oc1cc2ncnn2cn1 [Example 92, (R,E)-N-(4-((4-([1,2,4]triazolo[1,5-c]pyrimidin-7-yloxy)-3-methylphenyl)amino)-5-((3,3-difluoro-1-methylpiperidin-4-yl)oxy)quinazolin-6-yl)-4-(dimethylamino)but-2-enamide]	267
